Like-named read-outs stand apart in the source and are kept apart here.
Biological target: T1, human Y5 receptor (Homo sapiens, UniProt Q15761)
T1 construct: expressed in transfected cells; host or cells: mouse fibroblast LM(tk-) cells, e.g. L-hY5-7 (ATCC CRL-11995)
T1 sequence (Q15761 1-445): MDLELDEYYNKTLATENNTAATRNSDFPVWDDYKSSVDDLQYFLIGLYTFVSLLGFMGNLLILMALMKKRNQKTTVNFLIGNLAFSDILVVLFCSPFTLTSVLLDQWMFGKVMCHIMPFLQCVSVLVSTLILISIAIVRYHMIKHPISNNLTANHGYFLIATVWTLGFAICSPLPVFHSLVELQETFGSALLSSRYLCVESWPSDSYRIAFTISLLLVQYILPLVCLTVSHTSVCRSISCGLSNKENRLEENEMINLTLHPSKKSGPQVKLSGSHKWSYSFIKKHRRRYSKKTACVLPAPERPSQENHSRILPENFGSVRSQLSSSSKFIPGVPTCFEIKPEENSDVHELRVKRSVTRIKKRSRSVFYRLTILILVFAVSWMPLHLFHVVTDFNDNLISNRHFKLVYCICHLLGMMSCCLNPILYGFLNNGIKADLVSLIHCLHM
Experiment: Radioligand binding to membranes, cloned human Y5 receptor

[1] = Table 5, read-out: Ki, nM hNPY-5
[2] = Table 6, read-out: Ki, nM hNPY-5
[3] = Table 1, read-out: Ki (nM) hNPY-5

Cc1nc(-c2cnc(NC[C@H]3CC[C@H](CNS(=O)(=O)N(C)C)CC3)s2)c(C)s1 [Example 99, trans-N′-[4-([5-(2,5-Dimethyl-1,3-thiazol-4-yl)-1,3-thiazol-2-yl]aminomethyl)cyclohexyl]methyl-N,N-dimethyl-sulfamide] showed a Ki [1] of 3.1 nM.

Compound O=S(=O)(NCCCCNc1nc2c(s1)CCSc1ccccc1-2)c1ccc(F)cc1F [Example 138, N1-[4-(4,5-Dihydrobenzo[2,3]thiepino[4,5-d][1,3]thiazol-2-ylamino)butyl]-2,4-difluoro-1-benzenesulfonamide] has a Ki [2] of 119 nM.

In the case of O=S(=O)(Cc1ccccc1)NCCCCCNc1nc(-c2ccccn2)cs1 [Example 66, 2-(5-(Benzylsulfonylamino)pentylamino-4-(2-pyridyl)thiazole hydrogen chloride], the Ki [1] is reported as 45 nM.

O=S(=O)(NCCCCCNc1nc2c(s1)CCSc1ccccc1-2)c1ccc(F)cc1F [Example 137, N1-[5-(4,5-Dihydrobenzo[2,3]thiepino[4,5-d][1,3]thiazol-2-ylamino)pentyl]-2,4-difluoro-1-benzenesulfonamide] was tested, and the Ki [2] was 6.5 nM.

Cc1cccc(F)c1S(=O)(=O)NCCCCCNc1nc2c(s1)CCSc1ccccc1-2 [Example 134, N1-[5-(4,5-Dihydrobenzo[2,3]thiepino[4,5-d][1,3]thiazol-2-ylamino)pentyl]-2-fluoro-6-methyl-1-benzenesulfonamide] was tested, and the Ki [2] was 8.3 nM.

O=S(=O)(NC[C@H]1CC[C@H](Nc2nc3c(s2)CCSc2ccccc2-3)CC1)c1ccc(F)cc1 [Example 155, N1-{[4-(4,5-Dihydrobenzo[2,3]thiepino[4,5-d][1,3]thiazol-2-ylamino)cyclohexyl]methyl}-4-fluoro-1-benzenesulfonamide] gave a Ki [2] of 9.1 nM.

For COc1ccc(C)cc1S(=O)(=O)NCCCCCNc1nc(-c2nccs2)cs1 [Example 88, N1-(5-[4-(1,3-thiazol-2-yl)-1,3-thiazol-2-yl]aminopentyl)-2-methoxy-5-methyl-1-benzenesulfonamide], the Ki [1] was 13.7 nM.

Work on COCCCNc1nc(NCC2CCC(CNS(=O)(=O)c3cccc4ccccc34)CC2)nc(NC(C)C)n1 (centres unmarked) [Example 13, N1-(4-[(4-(isopropylamino)-6-[(3-methoxypropyl)amino]-1,3,5-triazin-2-ylamino)methyl]cyclohexylmethyl)-1-naphthalenesulfonamide] yielded a Ki [3] of 22 nM.

CC(C)Nc1nc(NCCC#N)nc(NCC2CCC(CNS(=O)(=O)c3cccc4ccccc34)CC2)n1 (centres unmarked) [Example 10, N1-[4-([4-[(2-cyanoethyl)amino]-6-(isopropylamino)-1,3,5-triazin-2-yl]aminomethyl)cyclohexyl]methyl-1-naphthalenesulfonamide] gave a Ki [3] of 81 nM.

CC(C)Nc1nc(Cl)nc(NCC2CCC(CNS(=O)(=O)c3ccc(C(C)(C)C)cc3)CC2)n1 (centres unmarked) [Example 51, N1-[4-([4-chloro-6-(isopropylamino)-1,3,5-triazin-2-yl]aminomethyl)cyclohexyl]methyl-4-(tert-butyl)-1-benzenesulfonamide] gave a Ki (Table 3, read-out: Ki (nM) hNPY-5) of 3540 nM.

Cc1nc(-c2csc(N[C@H]3CC[C@H](CNS(=O)(=O)c4ccc(F)cc4)CC3)n2)c(C)s1 [Example 97] was tested, and the Ki [1] was 6.6 nM.

Work on CCNc1nc(NCC)nc(NCC2CCC(CNS(=O)(=O)c3ccccc3F)CC2)n1 (centres unmarked) [Example 32, N1-[4-([4,6-di(ethylamino)-1,3,5-triazin-2-yl]aminomethyl)cyclohexyl]methyl-2-fluoro-1-benzenesulfonamide] yielded a Ki (Table 2, read-out: Ki (nM) hNPY-5) of 35 nM.

C=CCNc1nc(NCC2CCC(CNS(=O)(=O)c3cccc4ccccc34)CC2)nc(NC(C)C)n1 (centres unmarked) [Example 3, N1-{[4-({[4-(Allylamino)-6-(isopropylamino)-1,3,5-triazin-2-yl]amino}methyl)cyclohexyl]methyl}-1-naphthalenesulfonamide] gave a Ki [3] of 12 nM.

Compound CCN(CC)c1nc(NCC2CCC(CNS(=O)(=O)c3cccc4ccccc34)CC2)nc(NC(C)C)n1 (centres unmarked) [Example 19, N1-[4-([4-(diethylamino)-6-(isopropylamino)-1,3,5-triazin-2-yl]aminomethyl)cyclohexyl]methyl-1-naphthalenesulfonamide] has a Ki [3] of 53 nM.

— patent publication US7189720B2 (H. Lundbeck A/S, priority 1999, dated 2007)
